The record followed here is patent publication US20240117302A1, “COMPOSITIONS AND METHODS FOR SMALL MOLECULE BASED EXPANSION OF PLURIPOTENT STEM CELLS” (Trailhead Biosystems Inc., priority 2022, published 2024).

Holding throughout (format): cell-based
Assay [1] has as its system pluripotent culture. Briefly: HD-DoE experiment for pluripotent maintenance (optimization of naïve, primed and pluripotent genes). The note with it: FIG. 6A. From the text:
A data-driven, High-Dimensional Design of Experiments (HD-DoE)-based perturbation of a pluripotent culture was used to assay several cellular signaling pathways known to function within the pluripotent state. The HD-DOE method was applied with the intent to find conditions for directly inducing the naïve state from the pluripotent stem cell state. This example utilizes a method previously described by Bukys et al. (2020) Iscience 23:101346, which employs computerized design geometries to simultaneously test multiple process inputs and provide for mathematical modeling of a deep effector/response space. The method allows for finding combinatorial signaling inputs that control a complex differentiation process and allows testing of multiple plausible critical process parameters impacting output responses, such as gene expression. […]
To develop a cell culture recipe for growing and maintaining PSCs in cell culture and for differentiation of stem cells to naïve state progenitors, the impact of agonists and antagonists of multiple signaling pathways (herein called effectors) on the expression of pre-selected genes was tested and modeled. The impact of each effector on gene expression level is defined by a parameter called factor contribution that is calculated for each effector during the modeling. […]

The subject of assay [2] is pluripotent culture. Briefly: HD-DoE experiment for E8 critical process parameter (CPP) media determination. As to conditions: 1:1 F12/IMDM hybrid media, FIG. 3. From the text:
To monitor the differentiation state of a pluripotent culture and track the primed state, naïve state and any early lineage commitment biases that may arise during the culture process, a network consisting of 54 genes was chosen (FIG. 1). Other genes monitored throughout this series of experiments include TERT and KI67. Maximal TERT expression is needed to sustain the pluripotent state in both naïve and primed cells while KI67, a proliferation marker, is expected to increase in the naïve state. Housekeeping genes measured within this QS chip design are used to normalize the individual experimental runs. This network of genes was then monitored using an HD-DoE methodology (Bukys et al. (2020) Iscience 23:101346) as further described in Example 2 to enable in silico modelling of the pluripotent state.
An initial HD-DoE modelling experiment was designed to determine if any of the components within the Essential 8 (E8) media were critical for pluripotent maintenance. The results of this experiment are depicted in FIG. 2. E8 media components include HEPES, bicarbonate, selenium, ascorbic acid, transferrin, insulin, FGF2 and TGF-β. HEPES, bicarbonate and selenium were not considered in this HD-DoE design, because they are additives that are not specific for the maintenance of the pluripotent state but are involved in enabling the overall growth of any cells in culture. In addition, these components are present in most generic media formulations, whereas the initial HD-DoE experiment herein utilized a 1:1 F12/IMDM hybrid media already containing HEPES, bicarbonate and selenium. In addition to the E8 components, human leukemia inhibitory factor (hLIF), AICAR (AMPK pathway agonist), CHIR 99021 (Wnt agonist/[…] antagonist), Go6983 (PKC pathway antagonist), PD0325901 (MEK pathway antagonist), and Y27632 (ROCK inhibitor) were evaluated within this design (FIG. 2). These components were selected based on previous experiments indicating the potential contribution of these components to maintenance of the pluripotent state.
Whereas the overall pluripotent state was driven by Go6983, the naïve state was favored by Y27632.

Assay [3] concerns pluripotent cells. Briefly: Adherent culture validation of TB5i media and comparison with TB7i. The note with it: direct comparison between TB5i and TB7i, FIG. 7A-7B. The method, then: In an exemplary embodiment, a PSC culture, such as the CR01 iPSC line, is grown and maintained on vitronectin coated 6-well TC plates using a culture media of the present application, such as TB5i media. PSC cultures are generally passaged every 3-4 days and treated with agents for disrupting cell-to-cell adhesion, such as EDTA, or digestion enzymes, such as collagenase, accutase, trypsin, or […]. This can be accomplished by removing the media and washing each well of the TC plate with 2 ml of PBS. A 3-minute incubation in the presence of 5 mM EDTA can then be performed at 37 degrees C. Wells are then aspirated, and the cells are washed off from the plates and seeded in fresh media. Each well passaged is generally seeded onto 6 wells of a newly vitronectin-coated TC plate resulting in a 1 to 6 expansion of the iPSC line.

The subject of assay [4] is pluripotent colony. Briefly: Protein additives assayed in the TB5i formulation, with immuno-histochemical validation. As to conditions: additive in the TB5i formulation, FIG. 8A. From the text: The protein additives FGF2, TGF-β1 and insulin were next assayed as additives in the TB5i formulation (FIG. 8A).

Turning to `C[C@@H](N)[C@H]1CC[C@H](C(=O)Nc2ccncc2)CC1` [Y27632], the “criticality to the process (sequential optimization of all naïve, primed and pluripotent genes)” value in assay [1] is given as “neither the cAMP activator forskolin, nor the ROCK pathway inhibitor were critical”. Further, in assay [2], the “contribution to maintaining the pluripotent state” value (“contribution” below) is recorded as “potentially aid in pluripotent maintenance”. In addition, in assay [3], the “benefit to the overall growth of pluripotent cells” value is listed as “neither forskolin, nor Y27632 were beneficial”.
Turning to FGF2, the “growth rate of the culture” value in assay [4] was “increased the growth rate”.
`COc1ccc2c(c1)c(C1=C(c3c[nH]c4ccccc34)C(=O)NC1=O)cn2CCCN(C)C` [Go6983]: the “contribution” value in assay [2] is “potentially aid in pluripotent maintenance”.
As to TGF-β1, the “morphology of the pluripotent colony edges” value in assay [4] is given as “sustained normal morphology”.
On to transferrin, for which, in assay [2], the “contribution” value is given as “beneficial in maintaining the pluripotent state”.
Same read-out and setting: under `O=C1O[C@H]([C@@H](O)CO)C(O)=C1O` [ascorbic acid] stands “beneficial in maintaining the pluripotent state”.
For insulin, the “effect on the culture” value in assay [4] is reported as “little, if any beneficial effect”.
